IC50 data for one molecule are collected here from patent US20100173958A1, “COMPOUNDS FOR THE INHIBITION OF DGAT1 ACTIVITY” (priority 2006, published 2010).

The target of this assay is T1, human DGAT1 (Homo sapiens, UniProt O75907).
T1 construct: made in house; host or cells: Sf9 insect cells (recombinant baculovirus); membrane fraction used
T1 sequence (O75907 1-488): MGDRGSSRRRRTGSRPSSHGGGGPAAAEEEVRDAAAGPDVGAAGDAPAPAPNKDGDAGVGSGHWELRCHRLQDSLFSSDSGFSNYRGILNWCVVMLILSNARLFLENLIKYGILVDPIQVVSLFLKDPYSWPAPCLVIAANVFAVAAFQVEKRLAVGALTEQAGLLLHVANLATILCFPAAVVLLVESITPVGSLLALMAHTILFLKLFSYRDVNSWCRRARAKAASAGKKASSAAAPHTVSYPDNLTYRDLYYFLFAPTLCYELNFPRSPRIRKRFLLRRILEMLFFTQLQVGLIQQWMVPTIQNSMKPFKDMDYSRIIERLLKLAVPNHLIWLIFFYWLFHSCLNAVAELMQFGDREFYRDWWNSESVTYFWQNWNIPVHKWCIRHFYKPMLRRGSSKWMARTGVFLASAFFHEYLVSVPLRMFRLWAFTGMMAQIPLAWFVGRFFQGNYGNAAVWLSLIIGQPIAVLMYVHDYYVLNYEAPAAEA
Briefly: Human Enzyme Assay (DGAT1 inhibition). It is filed as biochemical. To be noted: human DGAT1 expressed in insect cell (sf9) membranes; 14C oleoyl coenzyme A, 30 minutes at room temperature. Here is the method:
The in vitro assay to identify DGAT1 inhibitors uses human DGAT1 expressed in insect cell membranes as the enzyme source (Proc. Natl. Acad. Sci. 1998, 95, 13018-13023). Briefly, sf9 cells were infected with recombinant baculovirus containing human DGAT1 coding sequences and harvested after 48 h. Cells were lysed by sonication and membranes isolated by centrifuging at 28000 rpm for 1 h at 4° C. on a 41% sucrose gradient. The membrane fraction at the interphase was collected, washed, and stored in liquid nitrogen.
DGAT1 activity was assayed by a modification of the method described by Coleman (Methods in Enzymology 1992, 209, 98-102). Compound at 1-10 μM was incubated with 0.4 μg membrane protein, 5 mM MgCl2, and 100 μM 1,2 dioleoyl-sn-glycerol in a total assay volume of 200 μl in plastic tubes. The reaction was started by adding ^14C oleoyl coenzyme A (30 μM final concentration) and incubated at room temperature for 30 minutes. The reaction was stopped by adding 1.5 mL 2-propanol:heptane:water (80:20:2). Radioactive triolein product was separated into the organic phase by adding 1 mL heptane and 0.5 mL 0.1 M carbonate buffer pH 9.5. DGAT1 activity was quantified by counting aliquots of the upper heptane layer by liquid scintillography.

As usually defined, the IC50 is the point on the concentration scale where inhibition reaches its midpoint. Higher therefore signals lower potency. Take `O=C(Nc1ccc(S(=O)(=O)C2CCC(C(=O)O)CC2)cc1)c1nnc(Nc2cc(F)c(F)c(F)c2)o1` (mixture of isomers) [Example 1, 4-[4-[[5-[(3,4,5-Trifluorophenyl)amino]1,3,4-oxadiazole-2-carbonyl]amino]phenyl]sulfonylcyclohexane-1-carboxylic acid]: the IC50 stood at 290 nM.
